Measured values as given in PubChem BioAssay (NCI).
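96-well plates; 48 h exposure; 5 concentrations. Endpoints by linear interpolation between flanking doses. Not reached: highest tested concentration assigned. At the GI50, growth is halved. TGI is the concentration that stops growth completely.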

Tests used:
Assay in all cases: inhibition of tumour cell growth, NCI panel, 48 h
[1] = test system: 786-0 renal
[2] = test system: SK-MEL-28 melanoma
[3] = test system: SR leukemia
[4] = test system: UO-31 renal
[5] = test system: SK-OV-3 ovarian
[6] = test system: CAKI-1 renal
[7] = test system: KM12 colon
[8] = test system: PC-3 prostate
[9] = test system: MCF7 breast
[10] = test system: MDA-MB-231 breast

SMILES	TGI [1]	TGI [2]	TGI [3]	TGI [4]	TGI [5]	TGI [6]	TGI [7]	TGI [8]	TGI [9]	TGI [10]	GI50 [10]	GI50 [2]	GI50 [8]	GI50 [3]	GI50 [4]	GI50 [5]	GI50 [6]	GI50 [9]	GI50 [7]
O=C(c1ccccc1)C1N=NN(Cc2ccccc2[N+](=O)[O-])C1C(=O)c1ccccc1 (stereo not given)	> 100 µM	> 100 µM	> 100 µM	> 100 µM	> 100 µM	> 100 µM	> 100 µM												
CC(Nc1ccc(Cl)cc1)c1ccncc1 (stereo not given)	> 100 µM	> 100 µM		> 100 µM	11.8 µM	> 100 µM	> 100 µM	> 100 µM	> 100 µM										
Cc1cc(=O)[nH]c(NNC(C#N)c2cccc([N+](=O)[O-])c2)n1 (stereo not given)	> 100 µM	> 100 µM	> 100 µM	> 100 µM	> 100 µM	> 100 µM	> 100 µM												
CC(C)(C)C(=O)Nc1c(C=O)ccc2[nH]cnc12	> 100 µM	> 100 µM		> 100 µM	> 100 µM	> 100 µM	> 100 µM	> 100 µM	> 100 µM	> 100 µM									
CCOC(=O)NC(=S)N(CC(=O)c1cc(OC)c(OC)c(OC)c1)c1ccc(Cl)cc1		> 100 µM	> 100 µM	> 100 µM	> 100 µM	> 100 µM	> 100 µM	> 100 µM	> 100 µM	> 100 µM	45.9 µM	75.8 µM	72.2 µM	38.1 µM	48.9 µM	> 100 µM	63.5 µM	> 100 µM	> 100 µM
N#Cc1c(-c2ccc([N+](=O)[O-])cc2)c(C#N)c(=O)n(NS(=O)(=O)c2ccccc2)c1S	> 100 µM	> 100 µM			> 100 µM	> 100 µM	> 100 µM	> 100 µM	> 100 µM	44.7 µM									
Cn1c(=O)c2c(nc3[nH]c(=O)c(Br)cn32)n(C)c1=O	> 100 µM	> 100 µM	> 100 µM	> 100 µM	> 100 µM	> 100 µM	> 100 µM	> 100 µM		> 100 µM									
C=CCC(O[Si](C)(C)C(C)(C)C)c1cc(O[Si](C)(C)C(C)(C)C)ccc1OC (stereo not given)		> 100 µM		> 100 µM	> 96.4 µM	> 100 µM	> 100 µM		> 100 µM										
C/C(=C1\N=C(c2ccccc2)OC1=O)c1ccccc1		> 100 µM	> 100 µM	> 100 µM	> 100 µM	> 100 µM	> 100 µM	> 100 µM	> 100 µM										
Cc1nc(NC(C)(CO)CO)nc(N/N=C/c2ccc(Cl)cc2)c1C(=O)Nc1ccc(Cl)cc1	> 100 µM	> 100 µM		> 100 µM	> 100 µM	> 100 µM	> 100 µM	> 100 µM	> 100 µM	> 100 µM									
Cc1nnc2n1N=C(c1ccccc1)C(c1ccccc1)S2 (stereo not given)	> 100 µM			> 100 µM	68.2 µM	> 100 µM	> 100 µM												
NC(=O)CCC(N=c1c2ccccc2n(O)c2ccccc12)C(=O)O (stereo not given)	> 100 µM	89.4 µM		> 100 µM	> 100 µM		> 100 µM												
COC(=O)c1c2c(cc3c1CC1(Cc4cc5c(c(C=O)c4C1)CCC5)C3)CCC2 (stereo not given)	> 100 µM	> 100 µM	53.7 µM	71.8 µM	> 100 µM	> 100 µM		> 100 µM	> 100 µM	91.7 µM									
COP(=O)(OC)OCN(C)CC/C=C(\C)CC/C=C(\C)CCC=C(C)C	31.3 µM	32.6 µM		28.3 µM	> 100 µM	33.8 µM	30 µM	21.2 µM	28.5 µM	56.3 µM									
Nc1[nH]c(=O)nc2c1ncn2C1OC(CO)C(O)C1O (stereo not given)	> 100 µM	> 100 µM		> 100 µM	> 100 µM	> 100 µM	> 100 µM	60.2 µM	> 100 µM	> 100 µM									
O=C1c2ccccc2-c2nc3ccncc3n21	> 100 µM	> 100 µM	> 100 µM	> 100 µM	> 100 µM	> 100 µM	> 100 µM	> 100 µM	> 100 µM										
C=C(Br)CN=CN(C)C	> 100 µM	> 100 µM	> 100 µM	> 100 µM	> 100 µM	> 100 µM		> 100 µM	> 100 µM	> 100 µM									
CCOC(=O)c1c(N)sc2c1C(C(=O)OCC)CCCC2 (stereo not given)	> 100 µM	> 100 µM	> 100 µM	> 100 µM			> 100 µM	> 100 µM	> 100 µM	> 100 µM									
N[C@@H](CCC(=O)NC(Cc1ccccc1)C(=O)NCP(=O)(O)O)C(=O)O (stereo not given in full)	> 100 µM	> 100 µM	> 100 µM	> 100 µM			> 100 µM	> 100 µM	> 100 µM	> 100 µM									
ClC1=NN=C(c2c[nH]c3ccccc23)CC1NCc1ccccc1 (stereo not given)	> 100 µM	> 100 µM		> 100 µM	> 100 µM	> 100 µM	> 100 µM	> 100 µM		> 100 µM									
O=C1c2cc3c(cc2-c2c1c1cc(F)c(F)cc1c(=O)n2CCCn1ccnc1)OCO3		> 100 µM	16.6 µM	0.814 µM		1.42 µM	14.7 µM	> 100 µM	1.39 µM	> 100 µM	0.311 µM	0.228 µM	0.124 µM	< 0.01 µM	0.0465 µM		< 0.01 µM	< 0.01 µM	0.0469 µM
CC1=C(CO)C(=O)OC(C(C)C2CCC3C4CC5OC56C(O)C(N5CC5)=CC(=O)C6(C)C4CCC23C)C1 (stereo not given)	17.8 µM	31.1 µM	10.5 µM	25.7 µM			5.01 µM												
N#Cc1ccccc1NC(=O)C(=O)C(C(=O)c1ccccc1F)C1OC(=O)c2ccccc21 (stereo not given)		> 100 µM	57 µM	> 100 µM	> 100 µM	> 100 µM	> 100 µM												
